Assay results published in PubChem BioAssay AID248 (DTP/NCI, 2004).
Where “and” joins values, the source holds several entries; their conditions need not be identical. Equal values may be shown once. Toxic doses and inconclusive results are not listed.

Tested on: L1210 leukemia ip in BDF1 mice, survival T/C
Test: NCI In Vivo Anticancer Drug Screen. Data for tumor model L1210 Leukemia (intraperitoneal) in B6D2F1 (BDF1) mice
Details: endpoint: mean survival time, higher = longer survival
Summary of the method: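 Tumor was transplanted into mice, which were then dosed with test compound or vehicle alone. Survival was recorded for each group, and the treated figure was expressed relative to the control figure.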

[1] = dose: 100.0 mg/kg/injection, schedule: Q01DX009 (ip), vehicle: saline with Tween-80
[2] = dose: 50.0 mg/kg/injection, schedule: Q01DX009 (ip), vehicle: Klucel (hydroxypropylcellulose) (HPC)
[3] = dose: 100.0 mg/kg/injection, schedule: Q01DX009 (ip), vehicle: Klucel (hydroxypropylcellulose) (HPC)
[4] = dose: 100.0 mg/kg/injection, schedule: Q01DX001 (ip), vehicle: carboxymethylcellulose (CMC)
[5] = dose: 200.0 mg/kg/injection, schedule: Q01DX001 (ip), vehicle: carboxymethylcellulose (CMC)
[6] = dose: 400.0 mg/kg/injection, schedule: Q01DX001 (ip), vehicle: carboxymethylcellulose (CMC)
[7] = dose: 200.0 mg/kg/injection, schedule: Q01DX009 (ip), vehicle: saline with Tween-80
[8] = dose: 400.0 mg/kg/injection, schedule: Q01DX009 (ip), vehicle: saline with Tween-80
[9] = dose: 100.0 mg/kg/injection, schedule: Q04DX003 (ip), vehicle: saline
[10] = dose: 200.0 mg/kg/injection, schedule: Q04DX003 (ip), vehicle: saline
[11] = dose: 400.0 mg/kg/injection, schedule: Q04DX003 (ip), vehicle: saline
[12] = dose: 100.0 mg/kg/injection, schedule: Q01DX001 (ip), vehicle: saline
[13] = dose: 200.0 mg/kg/injection, schedule: Q01DX001 (ip), vehicle: saline
[14] = dose: 400.0 mg/kg/injection, schedule: Q01DX001 (ip), vehicle: saline
[15] = dose: 50.0 mg/kg/injection, schedule: Q01DX001 (ip), vehicle: saline
[16] = dose: 100.0 mg/kg/injection, schedule: Q04DX003 (ip), vehicle: saline with Tween-80
[17] = dose: 200.0 mg/kg/injection, schedule: Q04DX003 (ip), vehicle: saline with Tween-80
[18] = dose: 50.0 mg/kg/injection, schedule: Q01DX001 (ip), vehicle: carboxymethylcellulose (CMC)

In the case of `CC(C)(C)CC(C)(C)N=C=S`, the T/C (dose: 25.0 mg/kg/injection, schedule: Q01DX009 (ip), vehicle: saline with Tween-80) is reported as 100 % of control, the T/C (dose: 50.0 mg/kg/injection, schedule: Q01DX009 (ip), vehicle: saline with Tween-80) is reported as 94 % of control and the T/C [1] is reported as 96 % of control and 97 % of control.

With `O=C(NC(=S)NCc1ccccc1)c1ccccc1` the T/C (dose: 75.0 mg/kg/injection, schedule: Q01DX001 (ip), vehicle: saline) was 98 % of control, the T/C (dose: 150.0 mg/kg/injection, schedule: Q01DX001 (ip), vehicle: saline) was 93 % of control and the T/C (dose: 300.0 mg/kg/injection, schedule: Q01DX001 (ip), vehicle: saline) was 98 % of control.

For `Cc1cncc2c(=O)n(-c3ccccc3)n(C)c12`, the T/C [2] was 93 % of control and the T/C [3] was 96 % of control.

For `Cn1c(=O)c2c(nc(Cc3ccc(NC(=O)c4ccc(C(=O)Nc5ccc(Cc6nc7c(c(=O)n(C)c(=O)n7C)n6C)cc5)cc4)cc3)n2C)n(C)c1=O`, the T/C (dose: 50.0 mg/kg/injection, schedule: Q01DX001 (ip), vehicle: other) was 97 % of control, the T/C (dose: 100.0 mg/kg/injection, schedule: Q01DX001 (ip), vehicle: other) was 94 % of control and the T/C (dose: 200.0 mg/kg/injection, schedule: Q01DX001 (ip), vehicle: other) was 94 % of control. For the same compound, the T/C (dose: 400.0 mg/kg/injection, schedule: Q01DX001 (ip), vehicle: other) was 92 % of control.

In the case of `NC(=O)C1C(=O)c2cccc3c2C1CCCC3` (centres undefined), the T/C [4] is reported as 90 % of control, the T/C [5] is reported as 95 % of control and the T/C [6] is reported as 92 % of control.

With `Cc1cc(NC(=S)Nc2ccccc2)c(NC(=S)Nc2ccccc2)cc1C` the T/C (dose: 12.5 mg/kg/injection, schedule: Q01DX005 (ip), vehicle: Klucel (hydroxypropylcellulose) (HPC)) was 103 % of control, the T/C (dose: 25.0 mg/kg/injection, schedule: Q01DX005 (ip), vehicle: Klucel (hydroxypropylcellulose) (HPC)) was 87 % of control and the T/C (dose: 25.0 mg/kg/injection, schedule: Q01DX009 (ip), vehicle: Klucel (hydroxypropylcellulose) (HPC)) was 96 % of control. The T/C (dose: 50.0 mg/kg/injection, schedule: Q01DX005 (ip), vehicle: Klucel (hydroxypropylcellulose) (HPC)) was 103 % of control, the T/C [2] was 96 % of control and the T/C (dose: 100.0 mg/kg/injection, schedule: Q01DX005 (ip), vehicle: Klucel (hydroxypropylcellulose) (HPC)) was 97 % of control and 101 % of control. The T/C [3] was 93 % of control, the T/C (dose: 150.0 mg/kg/injection, schedule: Q01DX009 (ip), vehicle: Klucel (hydroxypropylcellulose) (HPC)) was 97 % of control and the T/C (dose: 335.0 mg/kg/injection, schedule: Q01DX009 (ip), vehicle: Klucel (hydroxypropylcellulose) (HPC)) was 90 % of control. For the same compound, the T/C (dose: 400.0 mg/kg/injection, schedule: Q01DX005 (ip), vehicle: Klucel (hydroxypropylcellulose) (HPC)) was 101 % of control.

With `CC(=O)NC(CCSCc1c2ccccc2c(C)c2c1ccc1ccccc12)C(=O)O` (centres undefined) the T/C [7] was 92 % of control and the T/C [8] was 90 % of control.

In the case of `O=C(C[n+]1ccc2ccccc2c1)c1ccc([N+](=O)[O-])cc1`, the T/C (dose: 12.5 mg/kg/injection, schedule: Q04DX003 (ip), vehicle: saline) is reported as 101 % of control, the T/C (dose: 25.0 mg/kg/injection, schedule: Q04DX003 (ip), vehicle: saline) is reported as 103 % of control and the T/C (dose: 50.0 mg/kg/injection, schedule: Q04DX003 (ip), vehicle: saline) is reported as 107 % of control.

For `Nc1ccc2c(ccc3ccc4ccccc4c32)c1`, the T/C (dose: 75.0 mg/kg/injection, schedule: Q01DX001 (ip), vehicle: carboxymethylcellulose (CMC)) was 97 % of control.

`CC1=CC(=O)C(C(O)(C(F)(F)Cl)C(F)(F)Cl)C(C)(C)C1` (centres undefined) (tested in a mixture with another compound) was tested, and the T/C [1] was 98 % of control, the T/C [9] was 93 % of control and the T/C [7] was 102 % of control. The T/C [10] was 98 % of control and the T/C [11] was 104 % of control.

In the case of `COC(=O)C1(C)COP(=O)(Nc2ccc(Br)cc2)OC1` (centres undefined), the T/C [12] is reported as 96 % of control, the T/C [13] is reported as 86 % of control and the T/C [14] is reported as 91 % of control.

In the case of `COc1c(N)cc2c(c1C)OCOC2`, the T/C [12] is reported as 97 % of control, the T/C [13] is reported as 100 % of control and the T/C [14] is reported as 105 % of control.

For `CN(C)C(=S)N1CC2C3CCC(O3)C2C1` (centres undefined), the T/C (dose: 100.0 mg/kg/injection, schedule: Q04DX003 (ip), vehicle: Klucel (hydroxypropylcellulose) (HPC)) was 95 % of control and the T/C (dose: 200.0 mg/kg/injection, schedule: Q04DX003 (ip), vehicle: Klucel (hydroxypropylcellulose) (HPC)) was 104 % of control.

For `O=S(=O)(CC(Br)c1ccccc1)c1ccccc1` (centres undefined), the T/C (dose: 100.0 mg/kg/injection, schedule: Q01DX009 (ip), vehicle: saline) was 92 % of control, the T/C [9] was 101 % of control and the T/C (dose: 200.0 mg/kg/injection, schedule: Q01DX009 (ip), vehicle: saline) was 95 % of control. The T/C [10] was 104 % of control, the T/C (dose: 400.0 mg/kg/injection, schedule: Q01DX009 (ip), vehicle: saline) was 94 % of control and the T/C [11] was 97 % of control.

`NC(=O)c1cccs1` was tested, and the T/C (dose: 5.0 mg/kg/injection, schedule: Q01DX001 (ip), vehicle: saline) was 98 % of control, the T/C (dose: 10.0 mg/kg/injection, schedule: Q01DX001 (ip), vehicle: saline) was 98 % of control and the T/C (dose: 20.0 mg/kg/injection, schedule: Q01DX001 (ip), vehicle: saline) was 98 % of control. The T/C (dose: 40.0 mg/kg/injection, schedule: Q01DX001 (ip), vehicle: saline) was 102 % of control.

`COc1ccc(CN2CCCN(Cc3ccc(OC)cc3OC)C2c2cccc(OC)c2O)c(OC)c1` was tested, and the T/C [15] was 95 % of control, the T/C [12] was 92 % of control and the T/C [13] was 92 % of control. The T/C [14] was 95 % of control.

`CC(C)(C)OC(=O)CC(O)c1ccccc1` (centres undefined) was tested, and the T/C [15] was 94 % of control, the T/C [12] was 102 % of control and the T/C [13] was 105 % of control. For the same compound, the T/C [14] was 102 % of control.

With `c1ccc(-c2nn3c(-c4ccccc4)nnc3o2)cc1` the T/C (dose: 66.0 mg/kg/injection, schedule: Q01DX009 (ip), vehicle: saline with Tween-80) was 90 % of control, the T/C [16] was 92 % of control and the T/C (dose: 150.0 mg/kg/injection, schedule: Q01DX009 (ip), vehicle: saline with Tween-80) was 95 % of control. The T/C [7] was 90 % of control, the T/C [17] was 93 % of control and the T/C [8] was 164 % of control. For the same compound, the T/C (dose: 400.0 mg/kg/injection, schedule: Q04DX003 (ip), vehicle: saline with Tween-80) was 92 % of control.

`CCCCOP(=O)(/C=C/c1cccs1)OCCCC` was tested, and the T/C [16] was 100 % of control and the T/C [17] was 94 % of control.

For `N#CCSc1nc(N)nc2nc[nH]c12`, the T/C (dose: 62.5 mg/kg/injection, schedule: Q01DX Z (ip), vehicle: methylcellulose (MC)) was 101 % of control and the T/C (dose: 125.0 mg/kg/injection, schedule: Q01DX Z (ip), vehicle: methylcellulose (MC)) was 105 % of control.

In the case of `C=CCC(O)CCCCC` (centres undefined), the T/C [18] is reported as 101 % of control, the T/C [4] is reported as 92 % of control and the T/C [5] is reported as 97 % of control. For the same compound, the T/C [6] was 106 % of control.

For `CCOc1ccccc1/C=N/Nc1nnc(N/N=C/c2ccccc2OCC)c2ccccc12`, the T/C [18] was 91 % of control, the T/C [4] was 97 % of control and the T/C [5] was 97 % of control. The T/C [6] was 91 % of control.

`Oc1ccc(O)c(Cl)c1` was tested, and the T/C [15] was 107 % of control, the T/C (dose: 50.0 mg/kg/injection, schedule: Q04DX002 (ip), vehicle: saline) was 106 % of control and the T/C (dose: 100.0 mg/kg/injection, schedule: Q01DX001 (ip), vehicle: Klucel (hydroxypropylcellulose) (HPC)) was 94 % of control. For the same compound, the T/C [12] was 107 % of control, the T/C (dose: 100.0 mg/kg/injection, schedule: Q04DX002 (ip), vehicle: saline) was 92 % of control and the T/C (dose: 200.0 mg/kg/injection, schedule: Q01DX001 (ip), vehicle: Klucel (hydroxypropylcellulose) (HPC)) was 94 % of control.

With `O=C1C=C(c2c(O)ccc3ccccc23)c2ccccc2C1=O` the T/C [18] was 96 % of control, the T/C [4] was 100 % of control and the T/C [5] was 96 % of control. For the same compound, the T/C [6] was 110 % of control.

For `NNC(=O)NC(=O)NN`, the T/C (dose: 9.61 mg/kg/injection, schedule: Q01DX Z (ip), vehicle: carboxymethylcellulose (CMC)) was 103 % of control, the T/C (dose: 19.23 mg/kg/injection, schedule: Q01DX Z (ip), vehicle: carboxymethylcellulose (CMC)) was 90 % of control and the T/C (dose: 38.45 mg/kg/injection, schedule: Q01DX Z (ip), vehicle: carboxymethylcellulose (CMC)) was 95 % of control. For the same compound, the T/C (dose: 76.9 mg/kg/injection, schedule: Q01DX Z (ip), vehicle: carboxymethylcellulose (CMC)) was 116 % of control, the T/C [12] was 103 % of control and the T/C [13] was 108 % of control.

With `CCCCCCCC[n+]1cccc(C(N)=O)c1` the T/C [16] was 98 % of control and the T/C [17] was 89 % of control.
